By IC50 is commonly meant the concentration at which inhibition is half-maximal. Broadly, the Ki is the dissociation constant of the complex between target and ligand, obtained from inhibition or displacement.

Where two headings read alike, the source gives them in different places. Where only a bound is given, the exact number is not on record here.

For one experiment, the system named is human PBMC T cells. The experiment is described as follows: cells. The note with it: read-out: T-cells (IC50). In kind it is cell-based.
The next experiment concerns human PBMC B cells. The experiment can be described thus: cells. The class given is cell-based. The conditions noted are these: read-out: B-cells (IC50).
The target of the next experiment is IMPDH human type II (Homo sapiens, UniProt P12268). The experiment can be described thus: biochemical.

As for `COc1cc(NC(=O)Nc2cccc([C@@H](C)NC(=O)OCCC#N)c2)ccc1C#N` [Compound 173], the IC50 is above 1000 nM with human PBMC T cells (Homo sapiens, 72 h) and 100 to 1000 nM in the experiment on human PBMC B cells (Homo sapiens, 72 h). Further, at IMPDH human type II (read-out: Ki), the Ki was above 50 nM.
On to `CCC(CC#N)OC(=O)N[C@H](C)c1cccc(NC(=O)Nc2ccc(C#N)c(OC)c2)c1` (stereo partly drawn) [Compound 174], for which the IC50 was above 1000 nM in the experiment with human PBMC T cells and 100 to 1000 nM in the experiment with human PBMC B cells. The inhibition constant (Ki) at IMPDH human type II is above 50 nM.
With `CCC(CO)OC(=O)N[C@H](C)c1cccc(NC(=O)Nc2ccc(C#N)c(OC)c2)c1` (stereo partly drawn) [Compound 175], the IC50 is above 1000 nM in the experiment with human PBMC T cells (Homo sapiens, 72 h) and above 1000 nM in the experiment with human PBMC B cells (Homo sapiens, 72 h). Further, the Ki at IMPDH human type II (read-out: Ki) was above 50 nM.
On to `CC[C@H](CO)OC(=O)N[C@H](C)c1cccc(NC(=O)Nc2ccc(C#N)c(OC)c2)c1` [Compound 179], for which the IC50 with human PBMC T cells (Homo sapiens, 72 h) was above 1000 nM; with human PBMC B cells (Homo sapiens, 72 h), above 1000 nM. Also, the Ki at IMPDH human type II (read-out: Ki) was above 50 nM.
In the case of `CC[C@H](CO)OC(=O)N[C@@H](C)c1cccc(NC(=O)Nc2ccc(C#N)c(OC)c2)c1` [Compound 180], the IC50 with human PBMC T cells (Homo sapiens, 72 h) was 100 to 1000 nM; in the experiment on human PBMC B cells (Homo sapiens, 72 h) it was above 1000 nM. Further, the Ki on IMPDH human type II (read-out: Ki) lay within 10 to 50 nM.
On the same counts, the results for `CCC(CC#N)OC(=O)N[C@@H](C)c1cccc(NC(=O)Nc2ccc(-c3cnco3)c(OC)c2)c1` (stereo partly drawn) [Compound 181] are below 100 nM, below 100 nM and below 10 nM.
On the same counts, the results for `CCOc1cc(NC(=O)Nc2cccc([C@H](C)NC(=O)O[C@H](CC)CC#N)c2)ccc1C#N` [Compound 182] are above 1000 nM, 100 to 1000 nM and above 50 nM.
With `COc1cc(NC(=O)Nc2cccc([C@H](C)NC(=O)O[C@H]3CCOC3)c2)ccc1C#N` [Compound 185], the concentration for half-maximal inhibition (IC50) in the experiment on human PBMC T cells and in the experiment on human PBMC B cells was 100 to 1000 nM throughout. Further, the Ki at IMPDH human type II (read-out: Ki) was 10 to 50 nM.
In the case of `C[C@H](NC(=O)O[C@H]1CCOC1)c1cccc(NC(=O)Nc2ccc(C#N)c(Cl)c2)c1` [Compound 187], the half-inhibitory concentration (IC50) was 100 to 1000 nM in the experiment with human PBMC T cells (Homo sapiens, 72 h) and below 100 nM with human PBMC B cells (Homo sapiens, 72 h). The compound also yielded a Ki at IMPDH human type II of 10 to 50 nM.

Values taken from patent publication US7087642B2 (priority 1999, dated 2006).
